Data set [1] is described as follows: Tolerance studies and plasma levels after multiple oral dosing. Type of data set: in vivo. The following applies: mice, oral. On the procedure:
All efficacy studies were carried out using CD-1 mice in accordance with the United Kingdom Animals (Scientific Procedures) Act (1986) under Home Office regulations. Studies were performed in SPF facilities at the University of Edinburgh under licence PPL 70/8102 and at the University of Glasgow under PPL 60/4442. The experiments were approved by the local ethics committees of the respective universities. Dosing regimens used in efficacy studies were first tested for tolerance in female CD-1 mice (University of Edinburgh; 6–8 weeks old). Animals were dosed orally by gavage with CTCB compounds following the dosing regimen for each individual experiment (n = 5; Supplementary Methods 6.2).
Dosing regimens used in efficacy studies were first tested for tolerance in female CD-1 mice (University of Edinburgh; 6-8 weeks old). Animals were dosed orally by gavage with CTCB compounds following the dosing regimen for each individual experiment (n=5) as indicated. Compounds were administered in a mixture containing Cremophor EL: EtOH: D-PBS (30:10:60 v/v). Animals were monitored for up to 8 hours post-dosing. On the final day of dosing, 2 hours after the final dose, whole blood was harvested from three mice via cardiac puncture, under gaseous isoflurane anaesthesia, to obtain plasma for analyses. The remaining two mice were monitored for several days post dosing. To avoid coagulation, 100 μl of 2% sodium citrate was utilised in the syringe during the procedure and blood samples subsequently transferred to heparin coated microtubules. Blood samples were centrifuged at 800 x g for 10 minutes at room temperature. The supernatant containing the plasma was transferred to a fresh tube for determination of compound levels and further PK analysis.

Data set [2] can be described thus: Pharmacokinetic studies in mice (IV and PO). It counts as in vivo, female CD-1 mice. The following applies: female, CD-1, plasma, mouse; for AUC(0-inf): read-out: AUC (infinity); for clearance: read-out: CL/kg (converted); for half-life: read-out: Elimination t1/2 (converted); for Vd: read-out: Vd (area); for bioavailability: PO 10 mg kg^−1 vs IV 1 mg kg^−1, read-out: Bioavailability (F%). On the procedure:
PK parameters for the lead compounds were determined using three mice per data point (Supplementary Methods 6.1).
Blood samples were collected from terminal cardiac puncture at 0.08 (IV only), 0.25, 0.5, 1 (PO only), 2, 4, 8 and 24 hour time points. The whole blood was centrifuged to obtain plasma. Brains were also collected following cardiac perfusion from both sets of animals at 2 hours. Analysis of the biological samples was carried out by the company Selcia. Plasma proteins were precipitated by addition of PBS (1 volume) followed by 3 volumes of acetonitrile containing internal standard (verapamil). Following filtration through a protein precipitation plate the eluent was dried under nitrogen and re-suspended in mobile phase prior to analysis. Individual brains were homogenised in PBS and diluted to 10% w/v and divided into aliquots consisting of brain homogenate (1 volume, 0.3 ml) and 3 volumes (0.9 ml) of acetonitrile containing internal standard. Samples were centrifuged and supernatants removed and taken through a protein precipitation plate alongside an appropriate standard. Eluents were dried under nitrogen and re-suspended in mobile phase prior to analysis. Eluents were analysed by LC-MS/MS using a Phenomenex Gemini NX column (C18,30 x 2.1 mm, 3 micron). Analysis of the data was carried out using PK solutions software.

The nature of data set [3]: Plasma protein binding, mouse plasma. Type of data set: in vitro ADME. On the procedure: (§1) A HepG2 cytotoxicity assay was used to determine a cellular selectivity index. HepG2 cells were seeded into 96-well plates in EMEM medium. Compounds were assessed for their effect upon cellular viability (Supplementary Methods 5.1). Inhibition of CYP450 was determined using kits from BD Biosciences (Supplementary Methods 5.2). Metabolic stability was determined using mouse […] tested at a single concentration of 5 µM. Plasma protein binding was determined using mouse and human plasma at a single concentration of 10 µM (Supplementary Methods 5.4). All PK studies in mice were carried out by Pharmidex (Supplementary Methods 6.1).
Compounds were tested for protein binding using mouse and human plasma at a single concentration of 10 µM and measured by equilibrium dialysis between plasma and buffer. The amount of parent was determined on both sides of the membrane after incubating for 4 hours at 37 °C. The samples were crashed with acetonitrile and put through protein precipitation plates. The eluent was analysed by LC/MS or LC/MS/MS. Output was percentage bound.

Data set [4] can be described thus: Metabolic stability, human liver microsomes. It counts as in vitro ADME. The following applies: read-out: HLM Clint. On the procedure: as §1
Compounds were tested for their metabolic stability using mouse and human liver microsomes (MLM and HLM). The compounds were tested at a single concentration of 5 µM. The samples were crashed with acetonitrile and put through protein precipitation plates. The eluent was analysed by LC/MS or LC/MS/MS.

The next data set deals with T. b. brucei GVR35-luc. The data set can be described thus: Wash-out studies, GVR35. Type of data set: cell-based. Conditions: concentrations greater than 2 to 4 µM, exposure longer than 4-6 hours, 3 days in drug free medium. On the procedure:
In vitro ‘wash-out’ studies were performed to determine the reversibility of the action of the CTCB compounds on trypanosomes, after a certain exposure time, and thus to assess whether the compounds have a trypanocidal or trypanostatic effect. These experiments were carried out with both the T. b. brucei Lister 427 and T. b. brucei GVR35-luc strains. Trypanosomes at a density of 500,000 cells/ml in culture medium were incubated with CTCB compounds at varying concentrations in 12-well plates in volumes of 1 ml for different periods of time at 37°C. Subsequently, the cultures were centrifuged for 5 min at 2600 x g, the cells washed by re-suspending the pellets in 1 ml medium without inhibitors, centrifuged again and re-suspended in 1 ml fresh medium. The cell suspensions were then incubated under regular culture conditions for 3 days and parasite growth monitored daily by light microscopy.
The results for both strains are similar with no grow-back at concentrations of CTCB compounds greater than 2 to 4 µM with drug exposure longer than 4-6 hours.

The subject of the next data set is T. b. rhodesiense. In words: EC50 against in vitro cultured T. b. rhodesiense (STMI). Type of data set: cell-based. Conditions: Trypanosoma brucei.
The next data set has as its system T. b. brucei Lister 427. The data set can be described thus: Wash-out studies, Lister 427. Type of data set: cell-based. Conditions: concentrations greater than 2 to 4 µM, exposure longer than 4-6 hours, 3 days in drug free medium. The procedure:
In order to estimate a killing-dose for in vivo trials, a series of washout experiments were carried out: parasites were incubated with a given concentration of compound before washing out the drug and determining whether the parasites were still viable and able to proliferate. […] The existence of a small population of parasites more resistant to the effects of the CTCB compounds might be explained by subpopulations of parasites being present at different stages of the cell cycle. The parasite cultures used in the killing experiments are not synchronised, and it is likely that ATP requirement varies depending on cell cycle phase and a subpopulation with lower ATP requirement may be less susceptible to the CTCB compounds, however, this phenomenon needs further investigation.
In vitro ‘wash-out’ studies were performed to determine the reversibility of the action of the CTCB compounds on trypanosomes, after a certain exposure time, and thus to assess whether the compounds have a trypanocidal or trypanostatic effect. These experiments were carried out with both the T. b. brucei Lister 427 and T. b. brucei GVR35-luc strains. […] The cell suspensions were then incubated under regular culture conditions for 3 days and parasite growth monitored daily by light microscopy. […]

Setting [5] is: 10 µM, equilibrium dialysis, read-out: Mouse plasma protein binding fu(%).

What is called Cmax is the highest concentration seen after dosing. For orientation: Tmax means the time from dosing to the highest level. One may read the EC50 as the concentration needed to bring the measured effect to its halfway point. Read a low EC50 as a more potent agent.

Where two headings read alike, the source gives them in different places.

With `CN(C)CCn1ccc2c(ccn2Cc2ccc(F)c(Br)c2)c1=O` [CTCB-508, 1-[(3-Bromo-4-fluorophenyl)methyl]-5-[2-(dimethylamino)ethyl] pyrrolo[3,2-c]pyridin-4-one], in data set [1], the “tolerance of high doses” value is given as “well tolerated”. Besides, in data set [2] (IV 1 mg kg^−1), the AUC(0-inf) was 349 ng·h/mL, the clearance is 45 mL/min/kg, the half-life was 0.7 h and the Vd amounted to 2.9 L/kg. Also, in data set [2] (PO 10 mg kg^−1), the Cmax came to 1330 ng/mL, the Tmax was found to be 2 h and the AUC(0-inf) came out at 4170 ng·h/mL. In data set [2], the bioavailability was found to be 119%. The fraction unbound at 4 h, 10 µM in data set [3] (setting [5]) amounted to 0.18. In addition, the microsomal CLint at 5 µM in data set [4] was under 8.6 µL/min/mg.

As for `CN(C)CCn1ccc2c(ccn2Cc2ccc(Cl)c(Br)c2)c1=O` [CTCB-470, 1-[(3-Bromo-4-chlorophenyl)methyl]-5-[2-(dimethylamino)ethyl] pyrrolo[3,2-c]pyridin-4-one], in data set [1], the “tolerance of high doses” value is reported as “well tolerated”. In the data set with T. b. brucei GVR35-luc, the “wash-out: grow-back after removal of drug” value is “no grow-back”. In addition, in data set [2] (IV 1 mg kg^−1), the AUC(0-inf) came to 657 ng·h/mL, the clearance was 25 mL/min/kg, the half-life is 3.1 h and the Vd is 6.9 L/kg. In data set [2] (PO 10 mg kg^−1), the Cmax is 393 ng/mL, the time to peak (Tmax) was determined as 0.5 h and the AUC(0-inf) worked out at 1560 ng·h/mL. Moreover, the bioavailability in data set [2] is 24%. The molecule also returned an EC50 with T. b. rhodesiense of 280 nM. Moreover, the fraction unbound at 4 h, 10 µM in data set [3] (setting [5]) was found to be 0.06. In addition, in data set [3] (percentage bound, read-out: mouse plasma protein binding value (converted)), the fraction unbound at 4 h, 10 µM is 0.058. In addition, the microsomal CLint at 5 µM in data set [4] is 17 µL/min/mg. In addition, the “wash-out: grow-back after removal of drug” value in the data set on T. b. brucei Lister 427 is recorded as “no grow-back”.
